Measured values taken from patent US6395755B1, “Benzothiophene pharmaceutical compounds” (Eli Lilly and Company, priority 1995, dated 2002).
Like-named read-outs stand apart in the source and are kept apart here.

Key:
[1] = system: uterus of ovariectomized (OVX) rats; set-up: species or system Sprague Dawley rats; details: rat, in vivo, po, 0.1 mg/kg/day
Method: (§1) In the examples illustrating the methods, a post-menopausal model was used in which effects of different treatments upon circulating lipids were determined.
(§2) Seventy-five day old female Sprague Dawley rats (weight range of 200 to 225 g) are obtained from Charles River Laboratories (Portage, Mich.). The animals are either bilaterally ovariectomized (OVX) or exposed to a Sham surgical procedure at Charles River Laboratories, and then shipped after one week. Upon arrival, they are housed in metal hanging cages in groups of 3 or 4 per cage and have ad libitum access to food (calcium content approximately 0.5%) and water for one week. Room temperature is maintained at 22.2° ±1.7° C. with a minimum relative humidity of 40%. The photoperiod in the room is 12 hours light and 12 hours dark.
Dosing Regimen Tissue Collection. After a one week acclimation period (therefore, two weeks post-OVX) daily dosing with test compound is initiated. 17α-ethynyl estradiol or the test compound is given orally, unless otherwise stated, as a suspension in 1% carboxymethylcellulose or dissolved in 20% cyclodextrin. Animals were dosed daily for 4 days. […] The animals are then sacrificed by asphyxiation with CO2, the uterus is removed through a midline incision, and a wet uterine weight is determined.

[2] = system: Uterine Eosinophil Peroxidase (EPO); set-up: species or system Sprague Dawley rats; details: rat, in vivo; for Uterine EPO (V. max): po
Source text: as §2
(§3) Dosing Regimen Tissue Collection. After a one week acclimation period (therefore, two weeks post-OVX) daily dosing with test compound is initiated. 17α-ethynyl estradiol or the test compound is given orally, unless otherwise stated, as a suspension in 1% carboxymethylcellulose or dissolved in 20% cyclodextrin. Animals were dosed daily for 4 days. Following the dosing regimen, animals are weighed and anesthetized with a ketamine: Xylazine (2:1, V:V) mixture and a blood sample is collected by cardiac puncture. The animals are then sacrificed by asphyxiation with CO2, the uterus is removed through a midline incision, and a wet uterine weight is determined.
Uterine Eosinophil Peroxidase (EPO) Assay. Uteri are kept at 4° C. until time of enzymatic analysis. The uteri are then homogenized in 50 volumes of 50 mM Tris buffer (pH−8.0) containing 0.005% Triton X-100. Upon addition of 0.01% hydrogen peroxide and 10 mM O-phenylenediamine (final concentrations) in Tris buffer, increase in absorbance is monitored for one minute at 450 nm. The presence of eosonophils in the uterus is an indication of estrogenic activity of a compound. The maximal velocity of a 15 second interval is determined over the initial, linear portion of the reaction curve.

[3] = system: femur density of ovariectomized rats; assay: Osteoporosis Test Procedure (35 day OVX rat, femur density); assay type: in vivo; details: oral in 20% hydroxypropyl β-cyclodextrin, daily for 35 days
Method: Following the General Preparation Procedure, infra, the rats are treated daily for 35 days (6 rats per treatment group) and sacrificed by carbon dioxide asphyxiation on the 36th day. The 35 day time period is sufficient to allow maximal reduction in bone density, measured as described herein. At the time of sacrifice, the uteri are removed, dissected free of extraneous tissue, and the fluid contents are expelled before determination of wet weight in order to confirm estrogen deficiency associated with complete ovariectomy. […] The uteri are then placed in 10% neutral buffered formalin to allow for subsequent histological analysis. The right femurs are excised and digitilized x-rays generated and analyzed by an image analysis program (NIH image) at the distal metaphysis. The proximal aspect of the tibiae from these animals are also scanned by quantitative computed tomography. In accordance with the above procedures, compounds of the present invention and ethynyl estradiol (EE2) in 20% hydroxypropyl β-cyclodextrin are orally administered to test animals.

[4] = system: Serum cholesterol; assay: Serum cholesterol in ovariectomized rats (post-menopausal model); assay type: in vivo, Sprague Dawley rats; details: oral; for Serum Cholesterol (% decrease vs. OVX): daily for 4 days
Method: as §1, §2, §3
Cholesterol Analysis. Blood samples are allowed to clot at room temperature for 2 hours, and serum is obtained following centrifugation for 10 minutes at 3000 rpm. Serum cholesterol is determined using a Boehringer Mannheim Diagnostics high performance cholesterol assay. Briefly the cholesterol is oxidized to cholest-4-en-3-one and hydrogen peroxide. The hydrogen peroxide is then reacted with phenol and 4-aminophenazone in the presence of peroxidase to produce a p-quinone imine dye, which is read spectrophotemetrically at 500 nm. Cholesterol concentration is then calculated against a standard curve. The entire assay is automated using a Biomek Automated Workstation.

Structure (SMILES) | Effect on uterine weight compared to ovariectomized animals (in words) [1] | Eosinophil infiltration into the uterus (stromal layer), in words [2] | Uterine EPO (V. max) ([2]; 0.1 mg/kg) | Prevention of loss of femur density / bone loss after ovariectomy [3] | Effect on serum cholesterol compared to ovariectomized controls (in words) ([4]; OVX rats, EE2 at 0.1 mg/kg/day) | Serum Cholesterol (% decrease vs. OVX) ([4]; dose 0.1 mg/kg) [%] | Uterine EPO (V. max) ([2]; 0.01 mg/kg) | Uterine EPO (V. max) ([2]; 1 mg/kg) | Uterine EPO (V. max) ([2]; 5 mg/kg) | Serum Cholesterol (% decrease vs. OVX) ([4]; dose 0.01 mg/kg) [%] | Serum Cholesterol (% decrease vs. OVX) ([4]; dose 1.0 mg/kg) [%] | Serum Cholesterol (% decrease vs. OVX) ([4]; dose 5.0 mg/kg) [%]
C#C[C@]1(O)CC[C@H]2[C@@H]3CCc4cc(O)ccc4[C@H]3CC[C@@]21C [EE2, 17α-ethynyl estradiol, reference compound] | substantially greater than the uterine weight of ovariectomized test animals | substantial, expected increase in eosinophil infiltration | 189.6 | prevented this loss | caused a decrease in serum cholesterol | 84.8 |  |  |  |  |  | 
CC(O)(c1ccc(OCCN2CCCCC2)cc1)c1c(-c2ccc(O)cc2)sc2cc(O)ccc12 (stereo not drawn) [Example 2] |  |  | 5.1 |  |  | 19.4 | 4.2 | 7.8 | 5.7 | −10.2 | 50.7 | 53.9
CC(c1ccc(OCCN2CCCCC2)cc1)c1c(-c2ccc(O)cc2)sc2cc(O)ccc12 (stereo not drawn) [Example 4] |  |  | 3.6 |  |  | 10.4 | 4.5 | 5.4 | 3.9 | −26.5 | 43.9 | 35.2
Oc1ccc(-c2sc3cc(O)ccc3c2C(O)(c2ccccc2)c2ccc(OCCN3CCCCC3)cc2)cc1 (stereo not drawn) [Example 8] |  |  | 3.6 |  |  | −3.1 | 4.2 | 4.5 | 35.1 | −9.0 | 14.0 | 56.9
O=C(c1ccc(OCCN2CCCCC2)cc1)c1c(-c2ccc(O)cc2)sc2cc(O)ccc12 [Raloxifene, reference compound] |  |  | 5.4 |  |  | 30.4 | 3.9 | 4.5 |  | 12.0 | 60.6 | 
